System: STAT5 Y694 phosphorylation
Assay: Protein electrophoresis and blotting of STAT5 Y694 phosphorylation in Jurkat cells stimulated with human interferon beta
Type: cell-based
Settings: for Inhibiting Ratio (0% for vehicle control): 1 hour pretreatment, 20 ng/ml human interferon beta 30 minutes, pSTAT5/GAPDH; for Example of Effect 1: Inhibiting Ability (Protein Electrophoresis and Blotting): observed pSTAT5 bands at 10 μM and 100 μM
Procedure: Example of Effect 1: Protein Electrophoresis and Blotting Experiment
Standard protein electrophoresis and chemiluminescence imaging equipment (Bio-Rad);
Protein lysate RIPA (Lianke Biological; Cat #WB020); Western blot transfer membrane PVDF (Millipore; Cat #IPVH00010);
Jurkat cells (ATCC American Standard Culture Center, TIB152) were cultured in a 6-well plate at a density of 1×10^6/ml with RPMI medium […] 10% fetal bovine serum in a humidified incubator at 37° C. and maintained at 5% carbon dioxide overnight. On the second day, the cells were pretreated with compounds of different concentrations (the mother liquor of the compound prepared by dimethyl sulfoxide was diluted in the medium at the required concentration) for 1 hour, and then stimulated with 20 ng/ml human interferon beta for 30 minutes, it was mixed thoroughly and then placed in an incubator at 37° C. environment. […] Then an appropriate volume of RIPA Lysis Solution was added, it was mixed well, and placed on ice for 1 hour, inverted and mixed several times in the middle. Then, the cell lysate was centrifuged at 12000 rpm at 4° C. for 10 minutes, and the supernatant was transferred to another test tube, aliquoted and stored at −20° C. until use.
An equal volume of protein lysate was mixed with an appropriate 6-fold protein loading buffer (Biyun Tian Biochemical Company P0015F), and the mixture was heated at 95 degrees for 10 minutes, after full denaturation, the protein sample was added to the polyacrylamide gel (self-made, raw material purchased from Soleibao Biotechnology Company A1010, 30% acrylamide solution), and electrophoresis was performed at the appropriate voltage for 1 hour, until the strips were fully separated. It was transferred to a polyvinylidene fluoride membrane according to standard procedures, and blocked with 5% skim milk for 1 hour, and the specified antibody was added, and it was diluted 1:1000 in 3% bovine serum albumin, and it was incubated overnight for four degrees. It was thoroughly rinsed, incubated with the secondary antibody, exposed to chemiluminescence and signals were collected. ImageJ software was used to quantify the obtained chemiluminescence results. The same area was selected, the gray values of STAT5 phosphorylation band and GAPDH band of each sample were analyzed, and the ratio of pSTAT5/GAPDH level was calculated. The value of the solvent-treated sample was 100%, and the remaining samples were converted into relative data in the same proportion, that is, the percentage corresponding to the solvent sample. […] The solvent control group was the same as the test compound group except that DMSO was used instead of the DMSO solution of the test compound. N1 (Pimozide) was a specific positive control.

Compound | Inhibiting Ratio (0% for vehicle control) (1 μM) [%] | Inhibiting Ratio (0% for vehicle control) (10 μM) [%] | Inhibiting Ratio (0% for vehicle control) (100 μM) [%] | Example of Effect 1: Inhibiting Ability (Protein Electrophoresis and Blotting)
O=C(Cc1ccc(C(F)(F)F)cn1)N1CCC(n2c(=O)[nH]c3ccccc32)CC1 [GEN1-028, 1-(1-(2-(5-(trifluoromethyl)pyridin-2-yl)acetyl)piperidin-4-yl)-1H-benzo[d]imidazole-2(3H)-one] | 14.5 | 32.6 | 93.3 | −
O=C(Cc1ccc(C(F)(F)F)cc1)N1CC(n2c(=O)[nH]c3ccccc32)C1 [GEN1-023, 1-(1-(2-(4-(trifluoromethyl)phenyl)acetyl)azetidin-3-yl)-1H-benzo[d]imidazole-2(3H)-one] | 9.4 | 33.3 | 93.6 | +
O=C(CC(F)(F)F)N1CCC(n2c(=O)[nH]c3ccccc32)CC1 [Example X2, 1-(1-(3,3,3-trifluoropropionyl)piperidin-4-yl)-1H-benzo[d]imidazole-2(3H)-one] |  |  |  | −
O=C(Cc1ccc(C(F)(F)F)cc1)N1CCC(n2c(=O)[nH]c3cc(C(F)(F)F)ccc32)CC1 [GEN1-005, 5-(trifluoromethyl)-1-(1-(2-(4-(trifluoromethyl)phenyl)acetyl)piperidin-4-yl)-1H-benzo[d]imidazole-2(3H)-one] | 28.0 | 44.4 | 95.6 | +
O=C(Cc1ccncc1)N1CCC(n2c(=O)[nH]c3ccccc32)CC1 [Example X3, 1-(1-(2-(pyridin-4-yl)acetyl)piperidin-4-yl)-1H-benzo[d]imidazole-2(3H)-one] | 17.4 | 4.7 | 87.5 | −
O=C(Cc1ccc(O)cc1)N1CCC(n2c(=O)[nH]c3ccccc32)CC1 [GEN1-071, 1-(1-(2-(4-hydroxyphenyl)acetyl)piperidin-4-yl)-1H-benzo[d]imidazol-2(3H)-one] |  |  |  | −
O=C(CCc1ccc(C(F)(F)F)cc1)N1CCC(n2c(=O)[nH]c3ccccc32)CC1 [GEN1-018, 1-(1-(3-(4-(trifluoromethyl)phenyl)propionyl)piperidin-4-yl)-1H-benzo[d]imidazole-2(3H)-one] | −36.5 | −6.2 | 98.6 | +
O=C(Cc1ccc(C(F)(F)F)cc1)N1CCC(n2c(=O)oc3ccccc32)CC1 [Example P8, 3-(1-(2-(4-(trifluoromethyl)phenyl)acetyl)piperidin-4-yl)benzo[d]oxazole-2(3H)-one] |  |  |  | −
O=C(Cc1ccc(C(F)(F)F)cc1)N1CCC(n2c(=O)[nH]c3ccc(C(F)(F)F)cc32)CC1 [GEN1-009, 6-(trifluoromethyl)-1-(1-(2-(4-(trifluoromethyl)phenyl)acetyl)piperidin-4-yl)-1H-benzo[d]imidazole-2(3H)-one] |  |  |  | +
O=C(Cc1ccc(C2CC2)cc1)N1CCC(n2c(=O)[nH]c3ccccc32)CC1 [GEN1-032, 1-(1-(2-(4-cyclopropylphenyl)acetyl)piperidin-4-yl)-1H-benzo[d]imidazole-2(3H)-one] | −16.3 | 13.8 | 94.9 | +
O=C(Cc1ccccc1)N1CCC(n2c(=O)[nH]c3ccccc32)CC1 [Example X4, 1-(1-(2-phenylacetyl)piperidin-4-yl)-1H-benzo[d]imidazole-2(3H)-one] | 21.2 | 5.3 | 87.8 | −
O=C(Cc1ccc(C(F)(F)F)cc1)N1CCC(n2c(=O)[nH]c3ccc(-c4ccccc4)cc32)CC1 [GEN1-090, 6-phenyl-1-(1-(2-(4-(trifluoromethyl)phenyl)acetyl)piperidin-4-yl)-1H-benzo[d]imidazol-2(3H)-one] |  |  |  | +
O=C(Cc1ccc(C(F)(F)F)nc1)N1CCC(n2c(=O)[nH]c3ccccc32)CC1 [GEN1-027, 1-(1-(2-(6-(trifluoromethyl)pyridin-3-yl)acetyl)piperidin-4-yl)-1H-benzo[d]imidazole-2(3H)-one] |  |  |  | +
O=C(Cc1ccc2c(c1)OCO2)N1CCC(n2c(=O)[nH]c3ccccc32)CC1 [GEN1-096, 1-(1-(2-(benzo[d][1,3]dioxol-5-yl)acetyl)piperidin-4-yl)-1H-benzo[d]imidazol-2(3H)-one] |  |  |  | +
O=C(Cc1ccccc1C(F)(F)F)N1CCC(n2c(=O)[nH]c3ccccc32)CC1 [GEN1-030, 1-(1-(2-(2-(trifluoromethyl)phenyl)acetyl)piperidin-4-yl)-1H-benzo[d]imidazole-2(3H)-one] | 15.7 | 19.4 | 94.0 | −
O=C(Cc1cccc(C(F)(F)F)c1)N1CCC(n2c(=O)[nH]c3ccccc32)CC1 [GEN1-029, 1-(1-(2-(3-(trifluoromethyl)phenyl)acetyl)piperidin-4-yl)-1H-benzo[d]imidazole-2(3H)-one] | −74.1 | −67.7 | 92.3 | +
O=C(Cn1c(=O)[nH]c2ccccc21)N1CCC(O)(c2ccc(C(F)(F)F)cc2)CC1 [GEN1-085, 1-(2-(4-hydroxy-4-(4-(trifluoromethyl)phenyl)piperidin-1-yl)-2-oxoethyl)-1H-benzo[d]imidazol-2(3H)-one] |  |  |  | −
O=C(Cc1ccncc1)N1CCC(n2c(=O)oc3ccccc32)CC1 [Example P3, 3-(1-(2-(pyridin-4-yl)acetyl)piperidin-4-yl)benzo[d]oxazole-2(3H)-one] |  |  |  | −
CC(=O)N1CCN(C2CCN(C(=O)Cc3ccc(C(F)(F)F)cc3)CC2)c2ccccc21 [GEN1-243, 1-(4-(4-acetyl-3,4-dihydroquinoxaline-1(2H)-yl)piperidin-1-yl)-2-(4-(trifluoromethyl)phenyl)ethenone] |  |  |  | +

From US20230099441A1, “HETEROCYCLIC COMPOUND, APPLICATION THEREOF, AND COMPOSITION CONTAINING SAME” (GenEros Biopharma Ltd., priority 2019, published 2023)
